Tested on: panel of solid and haemotological tumor cell lines (e.g., Hs578t, SiHa, MDA-MB-231)
Assay: MTS cell proliferation assay (cytotoxicity)
Format: cell-based
Details: Table 1 (Group 1), 72-96 hours, 10 mM lactate medium or RPMI 1640 medium, cell line not stated
Description: The anti-proliferation effect of MCT inhibition was investigated across a panel of solid and haemotological tumor cell lines. Cells were routinely cultured in their appropriate growth medium. On day 1, between 10,000-25,000 cells/well (e.g., Hs578t: 15,000 cells/well, SiHa: 10,000 cells/well, and MDA-MB-231: 25,000 cells/well) were plated into 96-well plates. 100 μL. of phosphate buffered saline solution was added to the external wells to prevent media evaporation. Plates were incubated in growth medium overnight at 37° C. in the presence of 5% CO2. On day 2, dry weight compound stocks were dissolved to a concentration of 10 mM in 100% DMSO. Compounds were further diluted in the assay medium; 10 mM lactate medium (without glucose, pyruvate, and glutamine) or RPMI 1640 medium (without pyruvate and glutamine) to generate a final dose range of 1 nM to 10 μM. Growth medium in the 96-well plate was replaced with the assay medium (10 mM lactate medium or RPMI medium or appropriate medium), and compounds were added to each well in the plate at different concentrations via serial dilution or pre-prepared solutions in assay medium. Plates were then incubated at 37° C. in the presence of 5% CO2 for a further 72-96 hours. On day 2-5, assay media was changed to 100 uL of DMEM/F12 and 20 μL of CellTiter 96 AQ MTS reagent was added to each well and the plate was returned to the incubator for 1-2 hours. MTS is bioreduced by NADPH or NADH produced by dehydrogenase enzymes in metabolically active cells into a coloured formazan product that is soluble in tissue culture medium. The amount of coloured formazan product is directly proportional to the number of living cells in culture. The absorbance of the plates was read on a Spectramax M5e plate reader using […] measurement wavelength. Dose response curves were plotted and IC50 values were calculated using GraphPad Prism. The IC50 value is equivalent to the concentration of compound that causes 50% inhibition of growth calculated from the compound treated signal to the vehicle treated signal.
Cytotoxicity of selected compounds is listed in Table 1, where IC50: A=<1 uM; B=1-10 uM; C=>10 uM; and NT=Not Tested.

Compound | IC50
CN(Cc1cccc(F)c1)c1cc2oc(=O)c(C(=O)O)cc2s1 [Compound 1.003, 2-((3-fluorobenzyl)(methyl)amino)-5-oxo-5H-thieno[3,2-b]pyran-6-carboxylic acid] | < 1 µM
COc1cccc(CN(C)c2cc3oc(=O)c(C(=O)O)cc3s2)c1 [Compound 1.004, 2-((3-methoxybenzyl)(methyl)amino)-5-oxo-5H-thieno[3,2-b]pyran-6-carboxylic acid] | < 1 µM
CN(CC1CCCCC1)c1cc2oc(=O)c(C(=O)O)cc2s1 [Compound 1.005, 2-((cyclohexylmethyl)(methyl)amino)-5-oxo-5H-thieno[3,2-b]pyran-6-carboxylic acid] | < 1 µM
CN(Cc1cccc(C(F)(F)F)c1)c1cc2oc(=O)c(C(=O)O)cc2s1 [Compound 1.006, 2-(methyl(3-(trifluoromethyl)benzyl)amino)-5-oxo-5H-thieno[3,2-b]pyran-6-carboxylic acid] | < 1 µM
CN(Cc1cc(C(F)(F)F)cc(C(F)(F)F)c1)c1cc2oc(=O)c(C(=O)O)cc2s1 [Compound 1.007, 2-((3,5-bis(trifluoromethyl)benzyl)(methyl)amino)-5-oxo-5H-thieno[3,2-b]pyran-6-carboxylic acid] | < 1 µM
CN(CC1CCOCC1)c1cc2oc(=O)c(C(=O)O)cc2s1 [Compound 1.008, 2-(methyl((tetrahydro-2H-pyran-4-yl)methyl)amino)-5-oxo-5H-thieno[3,2-b]pyran-6-carboxylic acid] | < 1 µM
CN(C(=O)C1CCCCC1)c1cc2oc(=O)c(C(=O)O)cc2s1 [Compound 1.010, 2-(N-methylcyclohexanecarboxamido)-5-oxo-5H-thieno[3,2-b]pyran-6-carboxylic acid] | < 1 µM
CN(C(=O)c1ccc(F)cc1)c1cc2oc(=O)c(C(=O)O)cc2s1 [Compound 1.011, 2-(4-fluoro-N-methylbenzamido)-5-oxo-5H-thieno[3,2-b]pyran-6-carboxylic acid] | < 1 µM
CN1CCC(CN(C)c2cc3oc(=O)c(C(=O)O)cc3s2)CC1 [Compound 1.012, 2-(methyl((1-methylpiperidin-4-yl)methyl)amino)-5-oxo-5H-thieno[3,2-b]pyran-6-carboxylic acid] | < 1 µM
CN(Cc1cccnc1)c1cc2oc(=O)c(C(=O)O)cc2s1 [Compound 1.013, 2-(methyl(pyridin-3-ylmethyl)amino)-5-oxo-5H-thieno[3,2-b]pyran-6-carboxylic acid] | < 1 µM
CN(Cc1cccs1)c1cc2oc(=O)c(C(=O)O)cc2s1 [Compound 1.014, 2-(methyl(thiophen-2-ylmethyl)amino)-5-oxo-5H-thieno[3,2-b]pyran-6-carboxylic acid] | < 1 µM
CN(C(=O)c1cccc(C(F)(F)F)c1)c1cc2oc(=O)c(C(=O)O)cc2s1 [Compound 1.015, 2-[Methyl-(3-trifluoromethyl-benzoyl)-amino]-5-oxo-5H-thieno[3,2-b]pyran-6-carboxylic acid] | < 1 µM
COc1ccc(C(=O)N(C)c2cc3oc(=O)c(C(=O)O)cc3s2)cc1 [Compound 1.016, 2-[(4-Methoxy-benzoyl)-methyl-amino]-5-oxo-5H-thieno[3,2-b]pyran-6-carboxylic acid] | < 1 µM
CN(C(=O)C1CCOCC1)c1cc2oc(=O)c(C(=O)O)cc2s1 [Compound 1.018, 2-[Methyl-(tetrahydro-pyran-4-carbonyl)-amino]-5-oxo-5H-thieno[3,2-b]pyran-6-carboxylic acid] | < 1 µM
COc1cc(C(=O)N(C)c2cc3oc(=O)c(C(=O)O)cc3s2)ccc1F [Compound 1.019, 2-[(4-Fluoro-3-methoxy-benzoyl)-methyl-amino]-5-oxo-5H-thieno[3,2-b]pyran-6-carboxylic acid] | < 1 µM
CN(C(=O)c1ccc(C(F)(F)F)cc1)c1cc2oc(=O)c(C(=O)O)cc2s1 [Compound 1.020, 2-[Methyl-(4-trifluoromethyl-benzoyl)-amino]-5-oxo-5H-thieno[3,2-b]pyran-6-carboxylic acid] | < 1 µM

Reference: patent US20220249454A1, “INHIBITORS OF MONOCARBOXYLATE TRANSPORTERS FOR CANCER IMMUNOTHERAPY” (NIROGY THERAPEUTICS, INC., priority 2021, published 2022)
